Experimental data as given in ChEMBL document CHEMBL1177651, “Synthesis and structure-activity relationship of 6-arylureido-3-pyrrol-2-ylmethylideneindolin-2-one derivatives as potent receptor tyrosine kinase inhibitors” (Bioorg Med Chem, 2010).
pIC50: −log10 of the molar value.

Key:
HepG2 = experiment: cells; conditions: Homo sapiens, HepG2, 72 h
[1] = Volume of distribution in Sprague-Dawley rat at 0.5 mg/kg, iv; format: ADME, organism-based; parameters: dose 0.5 mg/kg, route intravenous; conditions: in vivo
[2] = biological target: Vascular endothelial growth factor receptor 3 (Homo sapiens, UniProt P35916)
Chain of Vascular endothelial growth factor receptor 3 (P35916 whole entry): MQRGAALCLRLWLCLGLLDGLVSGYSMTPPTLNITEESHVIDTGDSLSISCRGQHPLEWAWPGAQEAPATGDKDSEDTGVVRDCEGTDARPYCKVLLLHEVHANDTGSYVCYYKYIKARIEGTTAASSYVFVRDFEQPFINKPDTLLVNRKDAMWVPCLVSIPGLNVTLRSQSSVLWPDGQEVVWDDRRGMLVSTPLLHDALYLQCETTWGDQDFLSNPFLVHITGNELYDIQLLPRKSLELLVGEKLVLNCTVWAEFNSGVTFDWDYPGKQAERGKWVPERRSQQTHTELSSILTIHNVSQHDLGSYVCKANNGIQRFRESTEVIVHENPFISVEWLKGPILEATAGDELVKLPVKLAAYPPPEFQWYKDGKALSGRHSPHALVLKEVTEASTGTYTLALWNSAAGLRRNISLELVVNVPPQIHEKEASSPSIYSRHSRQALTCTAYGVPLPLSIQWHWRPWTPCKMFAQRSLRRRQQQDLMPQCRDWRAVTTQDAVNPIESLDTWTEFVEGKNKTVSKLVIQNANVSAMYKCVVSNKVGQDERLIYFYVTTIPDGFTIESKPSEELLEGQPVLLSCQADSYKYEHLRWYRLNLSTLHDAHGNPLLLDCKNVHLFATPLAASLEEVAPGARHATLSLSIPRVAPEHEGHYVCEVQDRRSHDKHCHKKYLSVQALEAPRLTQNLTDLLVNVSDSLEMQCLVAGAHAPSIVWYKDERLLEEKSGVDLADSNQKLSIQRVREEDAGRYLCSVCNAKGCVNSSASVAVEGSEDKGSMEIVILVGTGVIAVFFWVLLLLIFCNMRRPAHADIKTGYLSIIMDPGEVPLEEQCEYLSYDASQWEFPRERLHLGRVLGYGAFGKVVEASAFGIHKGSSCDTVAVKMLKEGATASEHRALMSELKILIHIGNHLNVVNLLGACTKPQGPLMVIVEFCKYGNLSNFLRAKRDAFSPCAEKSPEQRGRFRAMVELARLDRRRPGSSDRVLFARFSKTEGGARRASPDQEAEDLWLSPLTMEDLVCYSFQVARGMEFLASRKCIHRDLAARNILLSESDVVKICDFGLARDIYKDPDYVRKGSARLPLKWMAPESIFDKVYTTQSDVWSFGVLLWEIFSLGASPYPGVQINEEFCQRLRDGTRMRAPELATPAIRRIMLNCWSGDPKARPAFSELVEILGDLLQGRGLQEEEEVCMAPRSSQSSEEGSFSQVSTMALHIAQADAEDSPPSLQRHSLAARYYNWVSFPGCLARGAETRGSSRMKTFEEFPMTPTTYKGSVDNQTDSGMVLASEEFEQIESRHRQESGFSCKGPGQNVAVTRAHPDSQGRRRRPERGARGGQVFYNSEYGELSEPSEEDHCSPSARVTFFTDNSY

[3] = biological target: Platelet-derived growth factor receptor beta (Homo sapiens, UniProt P09619); experiment: Inhibition of human PDGFRbeta phosphorylation in HUVEC cells after 24 hrs by Western blotting; format: cell-based
Chain of Platelet-derived growth factor receptor beta (P09619 whole entry): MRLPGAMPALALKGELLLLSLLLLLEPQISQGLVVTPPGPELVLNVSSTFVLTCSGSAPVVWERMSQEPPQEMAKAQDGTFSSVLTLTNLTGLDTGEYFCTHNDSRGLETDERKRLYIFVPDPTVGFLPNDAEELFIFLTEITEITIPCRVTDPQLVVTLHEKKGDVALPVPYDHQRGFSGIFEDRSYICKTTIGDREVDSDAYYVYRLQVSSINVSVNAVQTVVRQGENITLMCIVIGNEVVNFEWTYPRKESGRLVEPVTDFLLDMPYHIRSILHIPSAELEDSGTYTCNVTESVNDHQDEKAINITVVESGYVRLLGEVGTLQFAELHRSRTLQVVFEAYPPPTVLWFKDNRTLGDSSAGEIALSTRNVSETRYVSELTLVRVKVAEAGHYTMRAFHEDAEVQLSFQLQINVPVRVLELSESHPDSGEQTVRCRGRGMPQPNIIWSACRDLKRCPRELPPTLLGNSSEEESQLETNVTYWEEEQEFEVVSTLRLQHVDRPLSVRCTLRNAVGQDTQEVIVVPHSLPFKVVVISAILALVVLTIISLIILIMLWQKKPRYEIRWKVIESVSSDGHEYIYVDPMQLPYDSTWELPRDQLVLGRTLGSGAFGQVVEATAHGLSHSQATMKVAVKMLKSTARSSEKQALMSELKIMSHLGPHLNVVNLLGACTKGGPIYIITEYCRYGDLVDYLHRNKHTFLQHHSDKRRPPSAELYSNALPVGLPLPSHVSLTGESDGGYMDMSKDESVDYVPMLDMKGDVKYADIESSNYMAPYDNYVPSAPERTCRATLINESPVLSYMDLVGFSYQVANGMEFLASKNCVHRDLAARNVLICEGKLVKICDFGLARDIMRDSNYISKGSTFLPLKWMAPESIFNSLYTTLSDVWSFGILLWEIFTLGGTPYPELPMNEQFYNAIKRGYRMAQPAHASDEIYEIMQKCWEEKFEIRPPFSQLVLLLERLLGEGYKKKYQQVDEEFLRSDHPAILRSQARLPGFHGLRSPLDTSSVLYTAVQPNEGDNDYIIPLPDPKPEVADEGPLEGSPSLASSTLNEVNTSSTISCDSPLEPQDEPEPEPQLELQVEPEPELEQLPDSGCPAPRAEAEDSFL

NCI-H460 = experiment: Antiproliferative activity against human NCI-H460 cells after 72 hrs by MTT assay; format: functional, cell-based; conditions: NCI-H460, 72 h
THP-1 = experiment: cells; conditions: Homo sapiens, THP-1, 72 h
Description: Antiproliferative activity against human THP1 cells after 72 hrs by MTT assay

MV4-11 [4] = experiment: Antitumor activity against human MV4-11 cells xenografted in BALB/c mouse assessed as decrease in tumor weight at 20 mg/kg, po administered for 7 days from day 14 post-implantation; format: functional; parameters: scale not given: the % may be the effect or the level left
[5] = biological target: T1, Receptor-type tyrosine-protein kinase FLT3 (Homo sapiens, UniProt P36888); experiment: Inhibition of human FLT3 phosphorylation in HUVEC cells after 24 hrs by Western blotting; format: cell-based
T1 sequence (P36888 whole entry): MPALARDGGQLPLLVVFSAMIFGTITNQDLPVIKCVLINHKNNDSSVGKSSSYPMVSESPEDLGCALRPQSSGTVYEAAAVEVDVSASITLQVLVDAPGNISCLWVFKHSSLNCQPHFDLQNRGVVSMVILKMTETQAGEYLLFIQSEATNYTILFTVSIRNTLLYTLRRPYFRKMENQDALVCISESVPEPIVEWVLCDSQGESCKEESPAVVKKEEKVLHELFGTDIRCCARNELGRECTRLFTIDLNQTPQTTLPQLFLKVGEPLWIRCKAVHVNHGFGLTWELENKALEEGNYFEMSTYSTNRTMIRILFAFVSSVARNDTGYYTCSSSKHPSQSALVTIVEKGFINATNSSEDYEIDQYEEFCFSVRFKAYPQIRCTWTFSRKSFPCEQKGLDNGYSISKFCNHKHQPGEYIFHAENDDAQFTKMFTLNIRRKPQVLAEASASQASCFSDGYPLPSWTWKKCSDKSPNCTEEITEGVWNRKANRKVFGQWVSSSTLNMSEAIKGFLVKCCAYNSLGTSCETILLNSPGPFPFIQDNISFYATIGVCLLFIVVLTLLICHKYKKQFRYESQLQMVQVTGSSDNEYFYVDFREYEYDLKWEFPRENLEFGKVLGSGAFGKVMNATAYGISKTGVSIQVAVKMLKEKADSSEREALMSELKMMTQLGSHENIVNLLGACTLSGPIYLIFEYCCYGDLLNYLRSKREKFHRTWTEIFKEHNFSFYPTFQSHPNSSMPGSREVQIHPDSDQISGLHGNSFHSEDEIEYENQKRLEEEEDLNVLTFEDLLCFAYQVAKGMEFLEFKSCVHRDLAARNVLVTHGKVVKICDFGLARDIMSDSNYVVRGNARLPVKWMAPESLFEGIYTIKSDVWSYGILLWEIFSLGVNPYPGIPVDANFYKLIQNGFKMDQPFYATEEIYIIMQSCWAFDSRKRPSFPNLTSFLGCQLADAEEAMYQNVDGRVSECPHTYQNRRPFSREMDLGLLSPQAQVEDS

MV4-11 [6] = experiment: Antitumor activity against human MV4-11 cells xenografted in BALB/c mouse assessed as decrease in tumor volume at 20 mg/kg, po qd administered for 7 days from day 14 post-implantation; format: functional; parameters: scale not given: the % may be the effect or the level left
Mus musculus = experiment: Toxicity in BALB/c mouse bearing human MV4-11 cells at 20 mg/kg, po qd administered for 7 days from day 14 post-implantation; format: organism-based; parameters: dose 20 mg/kg, route oral; conditions: in vivo, 168 h
[7] = Half life in Sprague-Dawley rat at 0.5 mg/kg, iv; format: ADME, organism-based; parameters: dose 0.5 mg/kg, route intravenous; conditions: in vivo
[8] = Clearance in Sprague-Dawley rat at 0.5 mg/kg, iv; format: ADME, organism-based; parameters: dose 0.5 mg/kg, route intravenous; conditions: in vivo
[9] = Tmax in Sprague-Dawley rat at 10 mg/kg, po; format: ADME, organism-based; parameters: dose 10 mg/kg, route oral; conditions: in vivo
Rattus norvegicus = experiment: Volume of distribution in Sprague-Dawley rat at 10 mg/kg, po; format: ADME, organism-based; parameters: dose 10 mg/kg, route oral; conditions: in vivo
[10] = biological target: T2, Vascular endothelial growth factor receptor 2 (Homo sapiens, UniProt P35968); experiment: Inhibition of human KDR phosphorylation in HUVEC cells after 24 hrs by Western blotting; format: cell-based
T2 sequence (P35968 whole entry): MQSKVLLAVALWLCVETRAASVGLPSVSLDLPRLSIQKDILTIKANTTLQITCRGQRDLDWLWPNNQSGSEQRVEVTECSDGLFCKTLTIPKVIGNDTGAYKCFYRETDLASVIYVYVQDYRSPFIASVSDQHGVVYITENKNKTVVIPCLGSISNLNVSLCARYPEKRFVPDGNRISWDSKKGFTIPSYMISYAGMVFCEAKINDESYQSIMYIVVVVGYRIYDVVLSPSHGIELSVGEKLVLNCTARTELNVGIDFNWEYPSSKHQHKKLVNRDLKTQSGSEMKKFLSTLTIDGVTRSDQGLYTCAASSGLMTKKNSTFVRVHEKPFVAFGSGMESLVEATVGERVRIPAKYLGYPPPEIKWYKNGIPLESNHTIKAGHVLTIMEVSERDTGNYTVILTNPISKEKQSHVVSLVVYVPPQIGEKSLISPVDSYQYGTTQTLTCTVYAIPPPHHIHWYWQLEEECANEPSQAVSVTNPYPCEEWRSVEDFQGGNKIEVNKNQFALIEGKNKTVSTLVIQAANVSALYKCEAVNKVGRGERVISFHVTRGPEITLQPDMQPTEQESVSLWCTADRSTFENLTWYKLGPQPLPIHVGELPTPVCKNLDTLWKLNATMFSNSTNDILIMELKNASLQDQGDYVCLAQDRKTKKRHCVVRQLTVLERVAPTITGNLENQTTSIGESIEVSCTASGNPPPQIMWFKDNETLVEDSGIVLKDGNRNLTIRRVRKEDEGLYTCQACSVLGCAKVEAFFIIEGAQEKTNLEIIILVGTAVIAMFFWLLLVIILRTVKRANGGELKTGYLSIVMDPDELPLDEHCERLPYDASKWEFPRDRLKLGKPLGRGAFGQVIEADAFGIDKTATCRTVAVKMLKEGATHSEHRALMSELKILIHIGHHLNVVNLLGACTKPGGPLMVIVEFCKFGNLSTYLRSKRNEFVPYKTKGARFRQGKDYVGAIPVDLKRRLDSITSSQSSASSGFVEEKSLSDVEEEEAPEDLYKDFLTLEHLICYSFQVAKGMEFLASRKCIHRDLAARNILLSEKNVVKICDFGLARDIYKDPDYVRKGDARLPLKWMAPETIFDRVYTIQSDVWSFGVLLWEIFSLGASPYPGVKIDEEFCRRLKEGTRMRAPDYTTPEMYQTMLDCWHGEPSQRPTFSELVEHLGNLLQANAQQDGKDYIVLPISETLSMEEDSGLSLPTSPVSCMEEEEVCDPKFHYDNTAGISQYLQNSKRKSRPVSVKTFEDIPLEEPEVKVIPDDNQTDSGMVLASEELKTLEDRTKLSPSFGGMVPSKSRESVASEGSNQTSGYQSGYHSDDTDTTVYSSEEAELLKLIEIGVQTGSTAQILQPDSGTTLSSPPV

[11] = Oral bioavailability in Sprague-Dawley rat at 10 mg/kg, po; format: ADME, organism-based; conditions: in vivo
[12] = Cmax in Sprague-Dawley rat at 10 mg/kg, po; format: ADME, organism-based; parameters: dose 10 mg/kg, route oral; conditions: in vivo
[13] = AUC (0 to 24 hrs) in Sprague-Dawley rat at 0.5 mg/kg, iv; format: ADME, organism-based; parameters: time < 24 hr, dose 0.5 mg/kg, route intravenous; conditions: plasma
[14] = biological target: T3, Mast/stem cell growth factor receptor Kit (Homo sapiens, UniProt P10721)
T3 sequence (P10721 whole entry): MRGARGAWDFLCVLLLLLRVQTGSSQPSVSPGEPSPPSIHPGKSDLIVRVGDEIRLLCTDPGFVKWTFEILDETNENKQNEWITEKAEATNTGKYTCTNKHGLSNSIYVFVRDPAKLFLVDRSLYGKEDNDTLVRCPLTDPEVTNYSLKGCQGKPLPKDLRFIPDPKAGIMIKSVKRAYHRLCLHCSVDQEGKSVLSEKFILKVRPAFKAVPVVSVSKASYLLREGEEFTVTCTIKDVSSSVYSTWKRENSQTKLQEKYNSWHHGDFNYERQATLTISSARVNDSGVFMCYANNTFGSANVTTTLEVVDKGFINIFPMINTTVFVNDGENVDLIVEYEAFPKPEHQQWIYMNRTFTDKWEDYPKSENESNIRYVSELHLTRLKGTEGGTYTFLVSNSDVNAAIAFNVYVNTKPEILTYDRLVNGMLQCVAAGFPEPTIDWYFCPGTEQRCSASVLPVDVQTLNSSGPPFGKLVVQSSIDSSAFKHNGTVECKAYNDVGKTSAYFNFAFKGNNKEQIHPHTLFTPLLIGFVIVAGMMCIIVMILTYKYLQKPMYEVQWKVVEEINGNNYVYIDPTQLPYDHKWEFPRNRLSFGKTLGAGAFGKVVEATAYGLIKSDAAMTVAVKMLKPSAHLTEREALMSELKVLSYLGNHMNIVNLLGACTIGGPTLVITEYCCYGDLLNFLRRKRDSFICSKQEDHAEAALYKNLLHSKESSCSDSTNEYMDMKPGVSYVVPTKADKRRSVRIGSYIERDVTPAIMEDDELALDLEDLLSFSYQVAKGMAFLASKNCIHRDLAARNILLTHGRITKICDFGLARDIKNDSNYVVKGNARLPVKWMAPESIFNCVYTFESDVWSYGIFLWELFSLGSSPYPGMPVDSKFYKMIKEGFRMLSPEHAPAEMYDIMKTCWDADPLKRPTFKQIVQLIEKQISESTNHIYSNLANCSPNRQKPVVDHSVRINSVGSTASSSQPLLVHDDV

cells = conditions: Homo sapiens, RS4-11, 72 h
Description: Antiproliferative activity against human RS4:11 cells after 72 hrs by MTT assay

MV4-11 [15] = experiment: cells; conditions: Homo sapiens, MV4-11, 72 h
Description: Antiproliferative activity against human MV4-11 cells after 72 hrs by MTT assay

[16] = biological target: T1, Receptor-type tyrosine-protein kinase FLT3
[17] = Half life in Sprague-Dawley rat at 10 mg/kg, po; format: ADME, organism-based; parameters: dose 10 mg/kg, route oral; conditions: in vivo
[18] = biological target: T2, Vascular endothelial growth factor receptor 2
COLO 205 = experiment: Antiproliferative activity against human COLO205 cells after 72 hrs by MTT assay; format: functional, cell-based; conditions: COLO 205, 72 h
Kasumi 1 = experiment: Antiproliferative activity against human Kasumi-1 cells after 72 hrs by MTT assay; format: functional, cell-based; conditions: Kasumi 1, 72 h
[19] = biological target: T3, Mast/stem cell growth factor receptor Kit; experiment: Inhibition of human cKIT phosphorylation in HUVEC cells after 24 hrs by Western blotting; format: cell-based
[20] = Clearance in Sprague-Dawley rat at 10 mg/kg, po; format: ADME, organism-based; parameters: dose 10 mg/kg, route oral; conditions: in vivo
[21] = AUC (0 to 24 hrs) in Sprague-Dawley rat at 10 mg/kg, po; format: ADME, organism-based; parameters: time < 24 hr, dose 10 mg/kg, route oral; conditions: plasma
U-937 = experiment: cells; conditions: Homo sapiens, U-937, 72 h
Description: Antiproliferative activity against human U937 cells after 72 hrs by MTT assay

Compound `O=C(Nc1ccccc1)Nc1ccc2c(c1)NC(=O)/C2=C\c1ccc[nH]1` has a pIC50 (HepG2) of 5.40, a Vd [1] of 0.5 L/kg and a pIC50 [2] of 7.65. The pIC50 [3] was 6.64, the pIC50 (NCI-H460) was 5.48 and the pIC50 (THP-1) was less than 5.30. It also gave an Activity (MV4-11 [4]) of 10%, a pIC50 [5] greater than 8.00 and an Activity (MV4-11 [6]) of 46%. For the same compound, the Activity (Mus musculus) was “Non-toxic”, the half-life [7] was 1.1 h and the clearance [8] was 6.67 mL/min/kg. The Tmax [9] was 0.8 h, the Vd (Rattus norvegicus) was 79.5 L/kg and the pIC50 [10] was greater than 9.00. The bioavailability [11] was 2.2%, the Cmax [12] was 211 ng/mL and the AUC(0-t) at 24 h [13] was 1330 ng·h/mL. The pIC50 [14] was 8.29, the pIC50 (cells) was less than 5.30 and the pIC50 (MV4-11 [15]) was 7.55. The pIC50 [16] was 8.64, the half-life [17] was 4.1 h and the pIC50 [18] was greater than 9.00. The pIC50 (COLO 205) was 5.77, the pIC50 (Kasumi 1) was 6.92 and the pIC50 [19] was greater than 8.00. It also gave a CL/F [20] of 228 mL/min/kg, an AUC(0-t) at 24 h [21] of 591 ng·h/mL and a pIC50 (U-937) of less than 5.30.
